Data taken from PMC12467234, “Label-Free and Ultrasensitive APE1 Detection Based on Hybridization Chain Reaction Combined with G-Quadruplex” (Biomolecules, 2025).
Read-outs that look alike come from different tables or passages of the source.

Biological target: T1, Apurinic/apyrimidinic endonuclease 1 (APE1) (Homo sapiens, UniProt P27695)
T1 construct: gene APEX1
Experiment: fluorescent HCR/G-quadruplex-ThT assay of AP-site cleavage by purchased APE1; also in cell lysates
Type: biochemical

T1 sequence (P27695 2-318): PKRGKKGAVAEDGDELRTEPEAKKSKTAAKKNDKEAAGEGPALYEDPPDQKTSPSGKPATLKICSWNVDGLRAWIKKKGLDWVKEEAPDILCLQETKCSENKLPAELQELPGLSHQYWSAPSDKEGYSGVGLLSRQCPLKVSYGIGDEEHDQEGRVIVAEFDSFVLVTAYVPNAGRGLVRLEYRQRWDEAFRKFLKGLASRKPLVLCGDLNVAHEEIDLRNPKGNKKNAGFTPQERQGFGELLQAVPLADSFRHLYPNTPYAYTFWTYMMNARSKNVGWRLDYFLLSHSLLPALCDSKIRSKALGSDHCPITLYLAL

Structure (SMILES)	IC50 (read-out: IC50)	IC50
CO/N=C(\C(=O)N[C@@H]1C(=O)N2C(C(=O)O)=C(COC(C)=O)CS[C@H]12)c1csc(N)n1 [cefotaxime sodium]	~75 µM	–
O=C(O)c1cc2cccc([N+](=O)[O-])c2[nH]1 [NCA, 7-nitroindole-2-carboxylic acid]	–	~3.5 µM
